Values of other authors, collected in US6344179B1, “Fluoralkenyl nortropanes” (Emory University, priority 1999, dated 2002).

Columns and labels:
[1] = tested on: DAT; conditions: cited from earlier work
[2] = tested on: DAT; conditions: non-human primates, within 2 h post injection; cited from earlier work

SMILES: COC(=O)C1C(c2ccc(Cl)cc2)CC2CCC1N2C/C=C/[123I] (centres unmarked) [MMG/142, IPT]
- in vitro selectivity (DA/5-HT) [1]: ~7
- striatal to cerebellum ratios [2]: 15 to 1
